“And” between values parts separate entries of the source, which are not always exact repeats. Equal values may be shown once.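 Exposure lasted 48 hours, with cells grown in 96-well plates and compounds tested at five concentrations. At the GI50, growth is halved. TGI: total growth inhibition.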 Where a SMILES comes first, the peptide text is derived from it.

The test system of the experiment is MDA-MB-468 breast. Briefly: DTP human tumour cell line panel, 48 h.
As for `O=C(Nc1ccccc1C(=O)N/N=C(\c1ccccc1)c1ccccn1)c1ccccc1`, the GI50 (usually the concentration at which growth is held to half of that of the control) was 0.338 µM and the TGI (usually the concentration at which net growth stops) was found to be 2.38 µM.
Regarding `C#CC(F)(F)[C@]1(O)CC[C@H]2[C@@H]3CCC4=CC(=O)CCC4=C3[C@@H](c3ccc(C4CC4)cc3)C[C@@]21C`, the GI50 was 0.121 µM and 0.265 µM; the TGI is 0.438 µM and 1.52 µM.
On to `COc1ccc(/C=C/C(=O)Nc2cc(/C=C\c3cc(OC)c(OC)c(OC)c3)cc(OC)c2OC)cc1OC`, for which the GI50 is 1.74 µM and the total growth inhibition concentration (TGI) is 7.52 µM.
The corresponding values for `O=S(=O)(Nc1ccc2ccccc2c1)N1CCCCC1` are 2.81 µM and 10.3 µM.
On to `C#CC#CC#CC#CC#CC#CC#CC#CC[C@@H]1OC[C@H](COC(=O)O[C@@H](C(=O)O[C@H]2C[C@@]3(O)[C@@H](OC(=O)c4ccccc4)[C@@H]4[C@]5(OC(C)=O)CO[C@@H]5C[C@H](O)[C@@]4(C)C(=O)[C@H](OC(C)=O)C(=C2C)C3(C)C)[C@@H](NC(=O)c2ccccc2)c2ccccc2)O1`, for which the GI50 is 0.439 µM and the total growth inhibition concentration (TGI) worked out at 1.59 µM.
The corresponding values for `COC(=O)[C@]12CC[C@@H](C)[C@H](C)[C@@H]1C1=CC[C@@H]3[C@@]4(C)C[C@@H](OC(C)=O)[C@H](O)[C@@](C)(CO)[C@@H]4[C@H](O)C[C@@]3(C)[C@]1(C)CC2` are 8.55 µM and 22.8 µM.
In the same order, the values of `CCCCCCC(O)(c1ccc(F)cc1)C(CN1CCOCC1)c1ccccc1` (stereo not given) are 4.93 µM and 18.6 µM.
The corresponding values for `Cn1cc(-c2nc(N)nnc2-c2c[nH]c3ccccc23)c2cc(Br)ccc21` are 0.342 µM and 2.04 µM.
Regarding `COc1ccc(CCc2nc3cc(-c4c(C)noc4C)ccc3n2CCN2CCOCC2)cc1`, the GI50 is 8.78 µM and the TGI was more than 100 µM.
The corresponding values for `C#CCNCCCN1C(=O)c2ccc3c4c(ccc(c24)C1=O)C(=O)N(CCCNCC#C)C3=O` are 0.129 µM and 0.308 µM.
In the same order, the values of `O=C1NC(=NCc2c(Cl)cccc2Cl)S/C1=C\c1ccc2ncccc2c1` are 6.24 µM and more than 25 µM.
The corresponding values for `Cc1cccc(-n2cnc3cc(C(=O)N4CCCCC4)ccc32)c1` are 18.6 µM and more than 100 µM.
As for `O=Cc1cn(Cc2ccccc2)c2ccccc12`, the GI50 was 0.174 µM and the total growth inhibition concentration (TGI) stood at 0.469 µM.
In the same order, the values of `Cn1cc(C2=C(n3ccc4ccccc43)C(=O)NC2=O)c2ccccc21` are more than 25 µM and more than 25 µM.
In the same order, the values of `O=S(=O)(Nc1cc(F)cc(F)c1)c1ccc(-c2cnc(C3CC3)o2)cc1` are 1.37 µM and 17.9 µM.
In the case of `CC(=O)/C(=C\c1c(-c2ccccc2)[nH]c2ccccc12)S(C)(=O)=O`, the GI50 is 1.79 µM and the TGI came to 8.1 µM.
On to `C=C(C)[C@@H]1CC[C@]2(C(N)=O)CC[C@]3(C)[C@H](CC[C@@H]4[C@@]5(C)C/C(=C/c6cccnc6)C(=O)C(C)(C)[C@@H]5CC[C@]43C)[C@@H]12`, for which the GI50 is 3.5 µM and the concentration for total growth inhibition (TGI) was determined as 40.5 µM.
The corresponding values for `O=C1C=CC2(NN=C(c3ccccc3)N2c2ccccc2)c2cccc(O)c21` (stereo not given) are 1.92 µM and 9.09 µM.
In the same order, the values of `CCCCCN1C(=O)/C(=c2\sc3n(c2=O)C2C(NN=3)N(CC)C(=O)N2CC)c2ccccc21` (stereo not given) are 0.369 µM and 2 µM.
In the same order, the values of `Cn1cc(-c2csc(-c3c[nH]c4ccccc34)n2)c2cccnc21` are 0.915 µM and 4.18 µM.
Take `CC(C)(C(=O)NCC(F)(F)C(F)(F)F)C(=O)N[C@@H]1C(=O)Nc2ccccc2-c2ccccc21`: the GI50 is 12.7 µM and the TGI worked out at 73 µM.
In the same order, the values of `CCNCCNc1cc(-c2ccc(Cl)c(Cl)c2)c(C#N)c2nc3ccccc3n12` are 1.14 µM and 2.52 µM.
Take `COC(=O)N[C@H]1C=C[C@@H]2/C=C(C)/C=C/[C@@H](C)[C@H]([C@H](C)[C@H](O)[C@@H](C)NC(C)=O)OC(=O)/C=C/C=C(C)\C=C\[C@]2(C)C1`: the GI50 is 0.00432 µM and 0.00453 µM; the total growth inhibition concentration (TGI) is more than 45.3 µM.
`CCOc1ccccc1C(=O)/C=C/c1cc2ccccc2[nH]c1=O`: the concentration for 50% growth inhibition (GI50) is 0.162 µM and the TGI worked out at 1.63 µM.
In the same order, the values of `COc1ccc2nc3c(n2c1)C(=O)C(=O)c1ccccc1-3` are 2.18 µM and 5.63 µM.
In the case of `COc1ccc(/C=C(/C(=O)N2CCCCC2)c2cc(OC)c(OC)c(OC)c2)cc1`, the GI50 is 0.498 µM and the TGI was more than 100 µM.
In the same order, the values of `Fc1ccc(-c2ncn(C3CCNCC3)c2-c2ccnc(Oc3cccc(C(F)(F)F)c3)n2)cc1` are 1.57 µM and 5.31 µM.
The corresponding values for `CCCCCCCCCCCCCCCC(=O)Nc1ccn([C@@H]2O[C@H](CO)[C@@H](O)[C@@H]2C#N)c(=O)n1` are 48.7 µM and more than 100 µM.
The corresponding values for `COc1cc2nccc(Oc3ccc(NC(=O)C4(C(=O)Nc5ccc(F)cc5)CC4)cc3)c2cc1OC(=O)c1ccc(N)cc1` are 3.99 µM and more than 100 µM.
Take `CCC(C)C1NC(=O)C(CCCCN)NC(=O)C(CCCCN)NC(=O)C(CC(C)C)NC(=O)C(CCCCN)NC(=O)C(C(C)CC)NC(=O)C(C(C)C)NC(=O)C(C(C)CC)NC(=O)C(CCCCN)NC(=O)C(CCCCN)NC(=O)C(C)NC(=O)C(CCCCN)NC(=O)C(CC(C)C)NC1=O` (stereo not given) (cyclo(AKKIVIKLKKILK); configuration not given here): the GI50 was 0.564 µM and the TGI came out at 2.3 µM.
The corresponding values for `COc1ccc(C(O)c2cc3c(N)c(C(=O)Nc4ccccc4)sc3nc2C)cc1` (stereo not given) are 0.0298 µM and more than 100 µM.
The corresponding values for `COc1cc(-c2cc(-c3nc4ccc(F)cc4[nH]3)[nH]n2)cc(OC)c1OC` are 1.56 µM and 9.67 µM.
As for `CCCCCCCCn1ccc2cc(NC(=O)Cn3cc(CN4CCN(CC)CC4)nn3)ccc21`, the GI50 was 1.53 µM and the TGI came out at 3.04 µM.
`CCNC(=O)N1CCc2c(Cl)c3c(c(OC)c2[C@@H]1[C@H]1OCc2c1ccc(OC)c2OC)OCCO3`: the GI50 was 2.65 µM and the TGI was more than 100 µM.
In the same order, the values of `NS(=O)(=O)c1ccc(N=Nc2c(O)[nH]c3ccc(Cl)cc23)cc1` are more than 20.1 µM and more than 25 µM.

The record behind these values is PubChem BioAssay (NCI).
